# Literature values as cited in patent publication US8088760B2, “Benzoxazole carboxamide inhibitors of poly(ADP-ribose)polymerase (PARP)” (BioMarin Pharmaceutical Inc., priority 2008, dated 2012).
# What was measured:
# PARP-1 = PARP-1 (Homo sapiens, UniProt P09874); settings: PARP-1 inhibitor
# [1] = tested on: BRCA2-deficient cell line V-C8; settings: BRCA2-deficient cell line V-C8 compared with the BRCA2 wild type control
# CAPAN-1 cells = CAPAN-1 cells maintained in DMEM supplemented with FCS (20% v/v), glutamine and antibiotics
# Sequence of PARP-1 (P09874 whole entry, species assumed): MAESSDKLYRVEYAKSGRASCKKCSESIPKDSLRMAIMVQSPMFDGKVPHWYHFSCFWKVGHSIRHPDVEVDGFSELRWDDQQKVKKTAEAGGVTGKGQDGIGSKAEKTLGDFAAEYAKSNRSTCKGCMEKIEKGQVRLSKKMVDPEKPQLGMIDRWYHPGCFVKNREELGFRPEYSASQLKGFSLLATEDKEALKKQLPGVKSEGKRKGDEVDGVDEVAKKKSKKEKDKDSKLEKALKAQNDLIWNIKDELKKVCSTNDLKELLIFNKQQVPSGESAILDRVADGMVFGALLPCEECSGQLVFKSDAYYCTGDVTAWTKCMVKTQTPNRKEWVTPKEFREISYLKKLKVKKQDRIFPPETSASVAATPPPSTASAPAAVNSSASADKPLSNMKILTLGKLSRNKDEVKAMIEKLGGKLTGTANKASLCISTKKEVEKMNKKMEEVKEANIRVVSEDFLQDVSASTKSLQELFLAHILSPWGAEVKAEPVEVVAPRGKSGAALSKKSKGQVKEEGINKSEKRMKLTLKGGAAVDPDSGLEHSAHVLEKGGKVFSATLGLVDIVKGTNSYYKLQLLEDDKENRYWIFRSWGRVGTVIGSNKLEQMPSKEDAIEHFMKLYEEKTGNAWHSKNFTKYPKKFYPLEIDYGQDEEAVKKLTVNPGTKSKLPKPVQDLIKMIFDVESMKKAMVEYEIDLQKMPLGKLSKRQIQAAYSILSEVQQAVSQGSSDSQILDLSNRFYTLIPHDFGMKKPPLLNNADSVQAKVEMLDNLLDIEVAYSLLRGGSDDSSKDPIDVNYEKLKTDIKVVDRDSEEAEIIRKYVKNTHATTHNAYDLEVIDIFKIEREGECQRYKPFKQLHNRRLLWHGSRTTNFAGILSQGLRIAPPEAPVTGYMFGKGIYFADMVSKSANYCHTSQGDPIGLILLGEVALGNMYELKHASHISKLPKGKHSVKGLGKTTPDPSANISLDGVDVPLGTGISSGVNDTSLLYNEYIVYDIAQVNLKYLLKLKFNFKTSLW
Compound,Ki (PARP-1) [nM],sensitivity in clonogenic survival assay [1],sensitivity in clonogenic survival assay (CAPAN-1 cells),in vivo efficacy in blocking tumor growth (BRCA2-deficient tumors)
CN(C)Cc1ccc(-c2nc3cccc4c3n2CCNC4=O)cc1 [AG14361],5,exhibited sensitivity,,
Cc1nc2c(O)cccc2c(=O)[nH]1 [NU1025],50,exhibited sensitivity,,
O=C1CCC(=O)N1c1cc(Cc2n[nH]c(=O)c3ccccc23)ccc1F [KU0058684],,,showing sensitivity to PARP inhibition,in vivo efficacy in blocking the growth of BRCA2-deficient tumors
